Results: paper PMC3651789 (Current biology : CB, 2013)

Tests used:
[1] = biological target: T1, AEX-2/GPCR (Caenorhabditis elegans, UniProt G5ECD9); test: In vitro cellular assay for AEX-2/GPCR activation by NLP-40-derived peptides; assay type: cell-based, C. elegans; conditions: for activation of AEX-2/GPCR (in words): CHO/mtAEQ/Gα16 cells transfected with AEX-2/GPCR, aequorin luminescence, all concentrations tested
T1 sequence (G5ECD9 1-321): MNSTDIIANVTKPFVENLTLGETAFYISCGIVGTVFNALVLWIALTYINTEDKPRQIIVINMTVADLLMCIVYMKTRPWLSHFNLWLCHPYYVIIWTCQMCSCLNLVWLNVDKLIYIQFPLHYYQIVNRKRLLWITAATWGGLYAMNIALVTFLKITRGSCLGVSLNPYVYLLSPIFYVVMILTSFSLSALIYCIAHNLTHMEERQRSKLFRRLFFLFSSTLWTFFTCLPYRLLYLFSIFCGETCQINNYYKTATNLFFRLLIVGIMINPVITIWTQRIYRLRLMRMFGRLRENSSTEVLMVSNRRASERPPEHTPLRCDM

[2] = test system: enteric muscle contractions (Exp); test: Enteric muscle contraction; assay type: in vivo, C. elegans; conditions: peptide injection; data not shown

Substance | activation of AEX-2/GPCR (in words) [1] | induction of enteric muscle contractions (Exp) (in words) [2] | relative potency at AEX-2/GPCR (in words) ([1]; CHO/mtAEQ/Gα16 cells, NLP-40 P3-1 compared to NLP-40 P3-2)
APSAPAGLEEKL [NLP-40 P1] | failed to activate AEX-2/GPCR at all concentrations tested |  | 
MVAWQPM [NLP-40 P3-1] | able to activate AEX-2/GPCR | failed to induce robust enteric muscle contractions (Exp) | more potent ligand for AEX-2/GPCR
VAWQPM [NLP-40 P3-2] | able to activate AEX-2/GPCR |  | 
